Target: T1, human TrkA (Homo sapiens, UniProt P04629)
T1 construct: histidine-tagged recombinant human TrkA, cytoplasmic domain; His tag; purchased Invitrogen Corp
Experiment: TrkA ELISA assay
Assay type: biochemical
Conditions: 2.5 nM TrkA, 500 µM ATP, 25 minutes at ambient temperature; read-out: TrkA Elisa Enzyme IC50
Description: An enzyme-linked immunosorbant assay (ELISA) was used to assess TrkA kinase activity in the presence of inhibitors. […] The assay buffer consisted of 25 mM MOPS pH 7.5, 0.005% (v/v) Triton X-100 and 5 mM MgCl2. The reaction mixture was removed from the plate by washing with PBS containing 0.1% (v/v) Tween 20. […] After the addition of 1M phosphoric acid, the chromogenic substrate color intensity was quantitated via absorbance at 450 nm. IC50 values were calculated using either a 4 or 5-parameter logistic curve fit.

T1 sequence (P04629 440-796 limits assumed): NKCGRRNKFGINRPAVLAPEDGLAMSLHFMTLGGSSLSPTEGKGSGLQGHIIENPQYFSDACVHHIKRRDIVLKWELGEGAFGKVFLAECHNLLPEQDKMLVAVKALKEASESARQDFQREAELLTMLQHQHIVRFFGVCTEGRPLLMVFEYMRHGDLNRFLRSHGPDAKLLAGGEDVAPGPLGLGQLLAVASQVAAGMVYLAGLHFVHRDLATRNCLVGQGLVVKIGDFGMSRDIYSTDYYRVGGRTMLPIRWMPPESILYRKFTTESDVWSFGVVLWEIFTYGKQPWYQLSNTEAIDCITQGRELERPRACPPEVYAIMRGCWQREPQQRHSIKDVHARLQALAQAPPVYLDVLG

SMILES | IC50 [nM]
CS(=O)(=O)Nc1ccc(C(=O)Nc2cnc3ccc(N4CCC[C@@H]4c4cc(F)ccc4F)nn23)cc1 [Example 4, (R)-N-(6-(2-(2,5-difluorophenyl)pyrrolidin-1-yl)imidazo[1,2-b]pyridazin-3-yl)-4-(methylsulfonamido)benzamide] | 2.1
N#Cc1cccc(NC(=O)Nc2cnc3ccc(N4CCC[C@@H]4c4cc(F)ccc4F)nn23)c1 [Example 5, (R)-1-(3-cyanophenyl)-3-(6-(2-(2,5-difluorophenyl)pyrrolidin-1-yl)imidazo[1,2-b]pyridazin-3-yl)urea] | 74.2
N#Cc1ccc(NC(=O)Nc2cnc3ccc(N4CCC[C@@H]4c4cc(F)ccc4F)nn23)cc1 [Example 6, (R)-1-(4-cyanophenyl)-3-(6-(2-(2,5-difluorophenyl)pyrrolidin-1-yl)imidazo[1,2-b]pyridazin-3-yl)urea] | 10.7
O=C(Nc1ccc(Cl)cc1Cl)Nc1cnc2ccc(N3CCC[C@@H]3c3cc(F)ccc3F)nn12 [Example 7, (R)-1-(2,4-dichlorophenyl)-3-(6-(2-(2,5-difluorophenyl)pyrrolidin-1-yl)imidazo[1,2-b]pyridazin-3-yl)urea] | 39.4
O=C(Nc1cccc(C(F)(F)F)c1)Nc1cnc2ccc(N3CCC[C@@H]3c3cc(F)ccc3F)nn12 [Example 8, (R)-1-(6-(2-(2,5-difluorophenyl)pyrrolidin-1-yl)imidazo[1,2-b]pyridazin-3-yl)-3-(3-(trifluoromethyl)phenyl)urea] | 508
COc1ccc(NC(=O)Nc2cnc3ccc(N4CCC[C@@H]4c4cc(F)ccc4F)nn23)cc1 [Example 30, (R)-1-(6-(2-(2,5-difluorophenyl)pyrrolidin-1-yl)imidazo[1,2-b]pyridazin-3-yl)-3-(4-methoxyphenyl)urea] | 5.5
COc1cc(NC(=O)Nc2cnc3ccc(N4CCC[C@@H]4c4cc(F)ccc4F)nn23)cc(OC)c1OC [Example 32, (R)-1-(6-(2-(2,5-difluorophenyl)pyrrolidin-1-yl)imidazo[1,2-b]pyridazin-3-yl)-3-(3,4,5-trimethoxyphenyl)urea] | 176
Cc1noc(C)c1NC(=O)Nc1cnc2ccc(N3CCC[C@@H]3c3cc(F)ccc3F)nn12 [Example 33, (R)-1-(6-(2-(2,5-difluorophenyl)pyrrolidin-1-yl)imidazo[1,2-b]pyridazin-3-yl)-3-(3,5-dimethylisoxazol-4-yl)urea] | 901
O=C(Nc1cnc2ccc(N3CCCCC3c3cccc(F)c3)nn12)N1CC(O)C1 (stereo not drawn) [Example 43, N-(6-(2-(3-fluorophenyl)piperidin-1-yl)imidazo[1,2-b]pyridazin-3-yl)-3-hydroxyazetidine-1-carboxamide] | 216
CC(C)(C)OC(=O)N1CCN(C(=O)Nc2cnc3ccc(N4CCC[C@@H]4c4cc(F)ccc4F)nn23)CC1(C)C [Example 48, (R)-tert-butyl 4-(6-(2-(2,5-difluorophenyl)pyrrolidin-1-yl)imidazo[1,2-b]pyridazin-3-ylcarbamoyl)-2,2-dimethylpiperazine-1-carboxylate] | 8.3
Cn1cc(C(=O)Nc2cnc3ccc(N4CCC[C@@H]4c4cc(F)ccc4F)nn23)ccc1=O [Example 56, (R)-N-(6-(2-(2,5-difluorophenyl)pyrrolidin-1-yl)imidazo[1,2-b]pyridazin-3-yl)-1-methyl-6-oxo-1,6-dihydropyridine-3-carboxamide] | 10.2
Cn1nc(C(=O)Nc2cnc3ccc(N4CCC[C@@H]4c4cc(F)ccc4F)nn23)ccc1=O [Example 57, (R)-N-(6-(2-(2,5-difluorophenyl)pyrrolidin-1-yl)imidazo[1,2-b]pyridazin-3-yl)-1-methyl-6-oxo-1,6-dihydropyridazine-3-carboxamide] | 2.3
